In patent US10413505B1, “Pharmaceutical compositions and methods of using the same” (priority 2017, dated 2019):
Where “and” joins values, the source holds several entries; their conditions need not be identical. Identical values can stand only once.

Experiments:
[1] = Example 1 urinary pharmacokinetics after intranasal administration; type: in vivo, human; conditions: healthy subjects; single intranasal 160 mg cocaine HCl; urine 0-12 h; metabolites as cocaine equivalents
Protocol: A single dose of a pharmaceutical composition was administered to both nostrils using cottonoid pledgets. […] Each pledget absorbed approximately 1 mL of pharmaceutical composition (i.e., 40 mg cocaine hydrochloride). Two soaked pledgets were placed into each nasal cavity of the subject and against the anterior septum for 20 minutes; thus, a total dose of 160 mg of cocaine hydrochloride was administered.
Urine samples were collected pre-dose and at the following intervals from the start of intranasal application of the pharmaceutical composition: 0-2 hours, 2-4 hours, 4-8 hours, and 8-12 hours. […] A 25-μL aliquot of each urine sample was processed by liquid-liquid extraction.
Urinary pharmacokinetic parameters were analyzed using noncompartmental methods.

[2] = Example 3 plasma pharmacokinetics, normal hepatic function vs hepatic impairment; conditions: for AUC0→t (Geometric mean) / AUC0→t (Max) / AUC0→t (Mean) / AUC0→t (Median) / AUC0→t (Min) / AUC0→∞ (Geometric mean) / AUC0→∞ (Max) / AUC0→∞ (Mean) / AUC0→∞ (Median) / AUC0→∞ (Min) / Clast (Geometric mean) / Clast (Max) / Clast (Mean) / Clast (Median) / Clast (Min) / Cmax (Geometric mean) / Cmax (Max) / Cmax (Mean) / Cmax (Median) / Cmax (Min) / Tlast (Geometric mean) / Tlast (Max) / Tlast (Mean) / Tlast (Median) / Tlast (Min) / Tmax (Geometric mean) / Tmax (Max) / Tmax (Mean) / Tmax (Median) / Tmax (Min) / t1/2 (Geometric mean) / t1/2 (Max) / t1/2 (Mean) / t1/2 (Median) / t1/2 (Min): single intranasal 160 mg cocaine HCl, plasma
[3] = Example 2 plasma pharmacokinetics, normal renal function vs severe renal impairment
[4] = normal renal function, single intranasal 160 mg cocaine HCl, plasma
[5] = severe renal impairment, single intranasal 160 mg cocaine HCl, plasma

CN1[C@H]2CC[C@@H]1[C@@H](C(=O)O)[C@@H](OC(=O)c1ccccc1)C2 [BE, benzoylecgonine]
Total Urinary Recovery (Geometric mean) [1]: 713 µg | Total Urinary Recovery (Mean) [1]: 816 µg | Total Urinary Recovery (Median) [1]: 769 µg | Urinary Recovery (Geometric mean) [1]: 0.467 % dose | Urinary Recovery (Mean) [1]: 0.534 % dose | Urinary Recovery (Median) [1]: 0.504 % dose | AUClast, times higher than normal subjects ([2]; Grade B hepatic impairment): approximately 2.4 times | AUClast, percent increased vs normal ([2]; Grade C hepatic impairment): 12% | AUC0→t (Geometric mean) ([2]; hepatic impairment): 1235 ng·h/mL | AUC0→t (Max) ([2]; hepatic impairment): 3356 ng·h/mL | AUC0→t (Mean) ([2]; hepatic impairment): 1402 ng·h/mL | AUC0→t (Median) ([2]; hepatic impairment): 1190 ng·h/mL | AUC0→t (Min) ([2]; hepatic impairment): 606 ng·h/mL | AUC0→∞ (Geometric mean) ([2]; hepatic impairment): 1513 ng·h/mL | AUC0→∞ (Max) ([2]; hepatic impairment): 3532 ng·h/mL | AUC0→∞ (Mean) ([2]; hepatic impairment): 1724 ng·h/mL | AUC0→∞ (Median) ([2]; hepatic impairment): 1448 ng·h/mL | AUC0→∞ (Min) ([2]; hepatic impairment): 647 ng·h/mL | Clast (Geometric mean) ([2]; hepatic impairment): 14.3 ng/mL | Clast (Max) ([2]; hepatic impairment): 42.6 ng/mL | Clast (Mean) ([2]; hepatic impairment): 17.6 ng/mL | Clast (Median) ([2]; hepatic impairment): 16.6 ng/mL | Clast (Min) ([2]; hepatic impairment): 3.33 ng/mL | Cmax (Geometric mean) ([2]; hepatic impairment): 67.1 ng/mL | Cmax (Max) ([2]; hepatic impairment): 248 ng/mL | Cmax (Mean) ([2]; hepatic impairment): 81.2 ng/mL | Cmax (Median) ([2]; hepatic impairment): 67.8 ng/mL | Cmax (Min) ([2]; hepatic impairment): 27.4 ng/mL | Tlast (Geometric mean) ([2]; hepatic impairment): 32.0 h | Tlast (Max) ([2]; hepatic impairment): 32.0 h | Tlast (Mean) ([2]; hepatic impairment): 32.0 h | Tlast (Median) ([2]; hepatic impairment): 32.0 h | Tlast (Min) ([2]; hepatic impairment): 1920 min | Tmax (Geometric mean) ([2]; hepatic impairment): 6.95 h | Tmax (Max) ([2]; hepatic impairment): 12.0 h | Tmax (Mean) ([2]; hepatic impairment): 7.50 h | Tmax (Median) ([2]; hepatic impairment): 7.00 h | Tmax (Min) ([2]; hepatic impairment): 240 min | t1/2 (Geometric mean) ([2]; hepatic impairment): 12.3 h | t1/2 (Max) ([2]; hepatic impairment): 31.0 h | t1/2 (Mean) ([2]; hepatic impairment): 14.0 h | t1/2 (Median) ([2]; hepatic impairment): 12.1 h | t1/2 (Min) ([2]; hepatic impairment): 399 min | AUC0→t (Geometric mean) ([2]; normal hepatic function): 603 ng·h/mL | AUC0→t (Max) ([2]; normal hepatic function): 2969 ng·h/mL | AUC0→t (Mean) ([2]; normal hepatic function): 784 ng·h/mL | AUC0→t (Median) ([2]; normal hepatic function): 523 ng·h/mL | AUC0→t (Min) ([2]; normal hepatic function): 144 ng·h/mL | AUC0→∞ (Geometric mean) ([2]; normal hepatic function): 667 ng·h/mL | AUC0→∞ (Max) ([2]; normal hepatic function): 3446 ng·h/mL | AUC0→∞ (Mean) ([2]; normal hepatic function): 869 ng·h/mL | AUC0→∞ (Median) ([2]; normal hepatic function): 568 ng·h/mL | AUC0→∞ (Min) ([2]; normal hepatic function): 182 ng·h/mL | Clast (Geometric mean) ([2]; normal hepatic function): 4.33 ng/mL | Clast (Max) ([2]; normal hepatic function): 31.6 ng/mL | Clast (Mean) ([2]; normal hepatic function): 6.17 ng/mL | Clast (Median) ([2]; normal hepatic function): 3.71 ng/mL | Clast (Min) ([2]; normal hepatic function): 2.02 ng/mL | Cmax (Geometric mean) ([2]; normal hepatic function): 43.7 ng/mL | Cmax (Max) ([2]; normal hepatic function): 171 ng/mL | Cmax (Mean) ([2]; normal hepatic function): 57.5 ng/mL | Cmax (Median) ([2]; normal hepatic function): 35.5 ng/mL | Cmax (Min) ([2]; normal hepatic function): 7.03 ng/mL | Tlast (Geometric mean) ([2]; normal hepatic function): 32.0 h | Tlast (Max) ([2]; normal hepatic function): 32.0 h | Tlast (Mean) ([2]; normal hepatic function): 32.0 h | Tlast (Median) ([2]; normal hepatic function): 32.0 h | Tlast (Min) ([2]; normal hepatic function): 1920 min | Tmax (Geometric mean) ([2]; normal hepatic function): 1.96 h | Tmax (Max) ([2]; normal hepatic function): 8.00 h | Tmax (Mean) ([2]; normal hepatic function): 2.38 h | Tmax (Median) ([2]; normal hepatic function): 1.63 h | Tmax (Min) ([2]; normal hepatic function): 60 min | t1/2 (Geometric mean) ([2]; normal hepatic function): 9.00 h | t1/2 (Max) ([2]; normal hepatic function): 13.1 h | t1/2 (Mean) ([2]; normal hepatic function): 9.16 h | t1/2 (Median) ([2]; normal hepatic function): 8.91 h | t1/2 (Min) ([2]; normal hepatic function): 398 min | AUC0→t (Geometric mean) [3, 4]: 589.5 ng·h/mL | AUC0→t (Max) [3, 4]: 2126 ng·h/mL | AUC0→t (Mean) [3, 4]: 762.1 ng·h/mL | AUC0→t (Median) [3, 4]: 616 ng·h/mL | AUC0→t (Min) [3, 4]: 167.4 ng·h/mL | AUC0→∞ (Geometric mean) [3, 4]: 639.2 ng·h/mL | AUC0→∞ (Max) [3, 4]: 2284 ng·h/mL | AUC0→∞ (Mean) [3, 4]: 823.8 ng·h/mL | AUC0→∞ (Median) [3, 4]: 676 ng·h/mL | AUC0→∞ (Min) [3, 4]: 166.1 ng·h/mL | Clast (Geometric mean) [3, 4]: 4 ng/mL and 3.96 ng/mL | Clast (Max) [3, 4]: 13.60 ng/mL | Clast (Mean) [3, 4]: 5.08 ng/mL | Clast (Median) [3, 4]: 4.34 ng/mL | Clast (Min) [3, 4]: 1.32 ng/mL | Cmax (Geometric mean) [3, 4]: 40.9 ng/mL | Cmax (Max) [3, 4]: 158.0 ng/mL | Cmax (Mean) [3, 4]: 55.7 ng/mL | Cmax (Median) [3, 4]: 42.1 ng/mL | Cmax (Min) [3, 4]: 9.0 ng/mL | Tlast (Geometric mean) [3, 4]: 32.0 h | Tlast (Max) [3, 4]: 32.0 h | Tlast (Mean) [3, 4]: 32.0 h | Tlast (Median) [3, 4]: 32.0 h | Tlast (Min) [3, 4]: 1920 min | Tmax (Geometric mean) [3, 4]: 2.75 h | Tmax (Max) [3, 4]: 6.00 h | Tmax (Mean) [3, 4]: 3.22 h | Tmax (Median) [3, 4]: 2.5 h | Tmax (Min) [3, 4]: 75 min | t1/2 (Geometric mean) [3, 4]: 8.429 h | t1/2 (Max) [3, 4]: 9.79 h | t1/2 (Mean) [3, 4]: 8.47 h | t1/2 (Median) [3, 4]: 8.32 h | t1/2 (Min) [3, 4]: 442 min | geometric mean AUClast, fold higher than in normal subjects ([3]; severe renal impairment vs normal renal function): more than 3.5 fold | AUC0→t (Geometric mean) [3, 5]: 2091 ng·h/mL | AUC0→t (Max) [3, 5]: 6242 ng·h/mL | AUC0→t (Mean) [3, 5]: 2733.6 ng·h/mL | AUC0→t (Median) [3, 5]: 1758 ng·h/mL | AUC0→t (Min) [3, 5]: 605.7 ng·h/mL | Clast (Geometric mean) [3, 5]: 41.3 ng/mL | Clast (Max) [3, 5]: 133.0 ng/mL | Clast (Mean) [3, 5]: 54.36 ng/mL | Clast (Median) [3, 5]: 35.7 ng/mL | Clast (Min) [3, 5]: 14.50 ng/mL | Cmax (Geometric mean) [3, 5]: 90.5 ng/mL | Cmax (Max) [3, 5]: 290.0 ng/mL | Cmax (Mean) [3, 5]: 120.4 ng/mL | Cmax (Median) [3, 5]: 75.8 ng/mL | Cmax (Min) [3, 5]: 23.7 ng/mL | Tlast (Geometric mean) [3, 5]: 32.0 h | Tlast (Max) [3, 5]: 32.0 h | Tlast (Mean) [3, 5]: 32.0 h | Tlast (Median) [3, 5]: 32.0 h | Tlast (Min) [3, 5]: 1920 min | Tmax (Geometric mean) [3, 5]: 6.13 h | Tmax (Max) [3, 5]: 12.0 h | Tmax (Mean) [3, 5]: 6.625 h | Tmax (Median) [3, 5]: 6.0 h | Tmax (Min) [3, 5]: 180 min | t1/2 (Geometric mean) [3, 5]: 24.65 h | t1/2 (Max) [3, 5]: 31.62 h | t1/2 (Mean) [3, 5]: 24.97 h | t1/2 (Median) [3, 5]: 24.0 h | t1/2 (Min) [3, 5]: 1191 min
